# Assay results as given in patent publication US20250352555A1, “METHOD OF INCREASING IMMUNE CELL ACTIVATION AND/OR TREATING CANCER USING DIBENZOXAZEPINONES” (VASCULAR THERAPEUTICS PTY LTD, priority 2022, published 2025).
# Assays:
# [1] = test system: PD-1; assay: Immunohistochemistry of B16F10 tumors (Day 17), PD-1; assay type: in vivo, mouse; settings: B16F10 tumors Day 17, 200 mg/kg i.p., vs vehicle
# From the text: (§1) Immunohistochemical staining and analyses. Rabbit monoclonal anti-CD3 (cat. no. ab16669; mouse, rat and human reactive), rabbit monoclonal anti-PD-1 (cat. no. ab214421), rabbit monoclonal anti-CD68 (cat. no. ab125212) antibodies were obtained from Abcam, rabbit monoclonal anti-phospho-ERK (Thr^202/Tyr^204) (cat. no. CST4370), rabbit monoclonal total ERK (cat. no. CST4695), antibodies were obtained from Cell Signaling Technology. Rabbit polyclonal anti-PD-L1 (cat. no. PA5-20343) antibody was obtained from ThermoFisher.
# (§2) Formalin fixed, paraffin embedded sections were prepared from tumors. Heat-induced epitope retrieval was applied to all deparaffinized sections (4 μm sections on Superfrost slides) with citrate buffer, pH 6.0 for 5 min at 110° C. Sections were blocked with Dual Endogenous Enzyme Block (DAKO, S2003) for 10 min and then with 2% skim milk for 20 min. Slides were incubated with primary antibody for 60 min at room temperature or overnight at 4° C. and then for 10 min with probe of MACH3 Rabbit AP-Polymer Detection solution (Biocare Medical, M3R533 G, H, L). […] Integrated optical density (IOD) or area of positive staining (red chromagen) was assessed using Image-Pro Plus software (Cybernetics, Bethesda, MD, USA). Positive staining was the average of quantitation in 4-8 fields of view under 20× or 40× objectives. […]
# [2] = test system: PD-1; assay: Flow cytometry with anti-PD-1 antibodies, Jurkat T cells; assay type: cell-based, human; settings: for inhibition of PD-1 levels: time course (FIG. 17C)
# Description: Flow cytometry with anti-PD-1 antibodies. Jurkat T cells were grown in 6 well plates containing RPMI 1640 and 10% FBS. After 24 h, the cells were treated with various concentrations of BT2 or BT3 for 48 h. Alternatively, the cells were incubated with 3 μM BT2 for various times. After treatment, the cells were washed with PBS, and centrifuged at 300×g for 5 min, and resuspended at 5×10^6 cells/ml. The cells were then incubated with BV421 conjugated mouse anti-human CD279 (PD-1) (BD, cat. no. 562516) or BV421 conjugated mouse IgG1 (BD, cat. no. 562438) for 45 min at 22° C. Cells were then washed twice with 1 ml of Stain Buffer, centrifuged and pellets were resuspended in 0.5 ml Stain Buffer. Stained cell suspensions were analyzed by flow cytometry using a BD FACSCanto (II).
# Jurkat T cells express PD-1 (Yi et al., 2023) and are widely used as model human T cells (e.g., Repas et al., 2022). […] BT2's effects were not only dose-dependent but time-dependent. BT2 (3 μM) inhibited PD-1 levels by 50% after 24 h and by 80% after 48 h (FIG. 17C).
# [3] = test system: human melanoma (MDA-MB-435 cells); assay: Melanoma growth in SCID mice bearing MDA-MB-435 xenograft; assay type: in vivo, mouse; settings: 5 days-on/2 days-off; for tumor growth (volume): from Day 16
# Description: In experiments with SCID mice, 5 week old CB17/lcr-Prkdcscid/lcrlcoCrl mice (sourced from Charles River Laboratories, USA) were inoculated s.c. with human MDA-MB-435 cells (2.5×10^6 cells/animal in 100 μl PBS) in the third mammary fat pad on Day 0. These cells were also sourced from ATCC. BT2 was suspended at 9.6 mg/ml in vehicle (saline containing 0.5% (v/v) Tween 80 and 0.01% (v/v) DMSO) and sonicated. Vehicle or BT2 were administered i.p. or intratumorally (i.t.) 20 mg/kg (i.t.) or 200 mg/kg (i.p.), once a day on a 5 days-on/2 days-off schedule. Treatment commenced on Day 16 and ended on Day 43. Tumor growth and body weight data is sourced from the animal study described in Li et al (Li et al., 2019) with the same vehicle group.
# Tumors were measured by length and width in mm twice per week for MDA-MB-435 in SCID mice and by length, width and height in mm once per day for B16F10 in C57BL/6J mice. Tumor volumes were calculated using formula V=(L×W×H×π)/6 (B16F10) or V=L×W×W/2 (MDA-MB-435). If a second tumor was detected in an animal, both tumor volumes were measured and their volumes combined. Animal protocols were approved by the Explora Biolabs' Institutional Animal Care and Use Committee (IACUC) and the UNSW Animal Care and Ethics Committee.
# BT2's ability to inhibit melanoma growth was investigated in a murine xenograft model. Immunocompromised SCID mice (C.B.17/lcr-Prkdcscid/lcrlcoCrl) bearing human melanoma (MDA-MB-435 cells, also mutant BRAF^V600E) were treated with 20 mg/kg BT2 intratumorally (i.t.) on a 5 days-on/2 days-off regime (FIG. 5A).
# To assess the effect of BT2 when delivered systemically (rather than locally) in the same immunodeficient mouse model, C.B.17 SCID mice bearing s.c. MDA-MB-435 tumors were given BT2 200 mg/kg or vehicle i.p. once a day on a 5 days-on/2 days-off schedule. Treatment commenced on Day 16 (FIG. 7A).
# [4] = test system: PD-L1; assay: Immunohistochemistry of B16F10 tumors (Day 17), PD-L1; assay type: in vivo, mouse; settings: B16F10 tumors Day 17, 200 mg/kg i.p., vs vehicle
# From the text: as §1, §2
# [5] = test system: A375 cells; assay: Cell morphology study, A375; assay type: cell-based, human; settings: 1 μM, 24 h
# Description: Cell morphology studies. Cells were grown in medium containing 10% FBS in 4-well chamber slides. The following day the cells were incubated in medium containing 10% FBS and vehicle, BT2 or SCH772984 at 1 μM for 24 h, then fixed with 4% paraformaldehyde solution for 15 min. After washing briefly in PBS the cells were stained with hemotoxylin and eosin. The slides were scanned using an Aperio ScanScope XT slide scanner (Leica Biosystems, Mt Waverley, Vic, Australia) and images were captured using ImageScope software (Leica Biosystems).
# The morphology of A375 and MeWo cells exposed to 1 μM of BT2 or SCH772984 for 24 h was also assessed.
# [6] = test system: total ERK; assay: Immunohistochemistry of MDA-MB-435 tumors, total ERK; assay type: in vivo, mouse; settings: SCID mice, 20 mg/kg i.t.
# From the text: as §1
# Formalin fixed, paraffin embedded sections were prepared from tumors. Heat-induced epitope retrieval was applied to all deparaffinized sections (4 μm sections on Superfrost slides) with citrate buffer, pH 6.0 for 5 min at 110° C. Sections were blocked with Dual Endogenous Enzyme Block (DAKO, S2003) for 10 min and then with 2% skim milk for 20 min. Slides were incubated with primary antibody for 60 min at room temperature or overnight at 4° C. and then for 10 min with probe of MACH3 Rabbit AP-Polymer Detection solution (Biocare Medical, M3R533 G, H, L). […] Integrated optical density (IOD) or area of positive staining (red chromagen) was assessed using Image-Pro Plus software (Cybernetics, Bethesda, MD, USA). Positive staining was the average of quantitation in 4-8 fields of view under 20× or 40× objectives.
# [7] = MDA-MB-435, 20 mg/kg i.t. once a day
smiles,measurement,setting,value
"CCOC(=O)Nc1ccc2c(c1)C(=O)N(CC)c1ccccc1O2 [BT2, (10-ethyl-11-oxo-10,11-dihydro-dibenzo[b,f][1,4]oxazepin-2-yl)-carbamic acid ethyl ester]",PD-1 levels in tumors (IHC),[1],reduced
same,reduction of PD-1 expression,"[2]; 0.1 μM, 48 h (FIG. 17A)",50%
same,inhibition of PD-1 levels,"[2]; 3 μM, 24 h",50%
same,reduction of PD-1 expression,"[2]; 3 μM, 48 h, dose response (FIG. 17A)",80%
same,inhibition of PD-1 levels,"[2]; 3 μM, 48 h",80%
same,body weight,[3]; [7],no adverse effect on body weight
same,tumor growth (volume),[3]; [7],caused growth inhibition
same,tumor growth (volume),"[3]; MDA-MB-435, 200 mg/kg i.p. once a day",no inhibition was observed
same,PD-L1 levels in tumors (IHC),[4],increased
same,cell morphology,[5],loss of spindle morphology and cell rounding
same,total ERK levels in the tumors (IHC),[6],no effect on total ERK levels
